The results in this text go back to article PMC12627862, “Therapeutic targeting of endothelial calcium signaling accelerates the resolution of lung injury” (Signal Transduction and Targeted Therapy, 2025).

Data set [1] can be described thus: Aggregation / solubility at 1 mM. The data set is classed as physicochemical. The following applies: summary calls it solubility at 1mM. How it is done:
(§1) The solubilities of the synthesized compounds were determined experimentally (Supplementary Table 2). Most compounds were highly soluble at a 1 mM concentration; however, some compounds tended to form aggregates. These compounds were excluded from further studies. In addition, we experimentally determined the lipophilicity of each compound, logP(oct/wat)=log(soluteoct/solutewat ), which is the partition coefficient of a compound between aqueous (water) and lipophilic (octanol) phases (Supplementary Table 2).

Data set [2] can be described thus: Lipophilicity of peptides, logP(oct/wat). The class given is physicochemical. How it is done:
as §1
Lipophilicity of peptides. Two separate solutions were obtained: an aqueous phosphate buffer with saturated n-octanol, and an n-octanol solution with saturated phosphate buffer. Peptides were then dissolved and diluted in the phosphate buffer. Different partitions were then made with different n-octanol to water ratio before shaking for an hour at room temperature. The aqueous phase and n-octanol were allowed to equilibrate, and each phase was extracted and analyzed for peptide concentrations. The ratio of peptide concentration in n-octanol to that in water is expressed as log(P).

The target in data set [3] is EB3 interactions with IP3R3-GFP (Homo sapiens, UniProt Q9UPY8). Briefly: Competitive binding: inhibition of EB3 interaction with IP3R3-GFP in vitro. The class given is biochemical. The following applies: 250 nM. An excerpt: We tested the efficacy of twenty-three compounds in inhibiting EB3 interactions with IP3R3-GFP via an in vitro approach developed by us[12],[13]. […] Guided by NMR studies, we predicted the binding pose of 109 to EB3 via AutoDock Vina[13],[24],[25].

Data set [4] relates to CD1 mice, cecal ligation and puncture. Briefly: Polymicrobial sepsis model (CLP). The data set is classed as in vivo, mouse. The following applies: CLP 18-gauge; monotherapy: VT-109 0.5 µmol/kg bw or enrofloxacin 5 mg/kg bw.

Starred links: 1 amine or outer side, 2 acyl side, 3 side chain; linkers in the order of their positions; H or OH if unused. Positions of bridges follow the written chain, without caps; N, C: chain ends. Non-standard residues stand in square brackets, D forms with d. Residues, ends and D or L forms follow the SMILES beside them. ξ: configuration not given here. X5 = O=C([C@@H]1[C@@H]2CCCC[C@@H]2CN1[*:1])[*:2]; X2 = C[C@@](CCCCC=[*:3])(N[*:1])C(=O)[*:2]; Leu(4,5-dehydro) = C=C(C)C[C@H](N)C(=O)O; X4 = C=C(C)C[C@@H](N[*:1])C(=O)[*:2]; d(tBuAla) = CC(C)(C)C[C@@H](N)C(=O)O; dVal(3-OH) = CC(C)(O)[C@@H](N)C(=O)O; Val(3-OH) = CC(C)(O)[C@H](N)C(=O)O; tBuAla = CC(C)(C)C[C@H](N)C(=O)O; R5 = C=CCCC[C@@](C)(N)C(=O)O; 4Amb = NCc1ccc(C(=O)O)cc1; ξP = O=C(O)C1CCCN1

Sequence of EB3 interactions with IP3R3-GFP (Q9UPY8 whole entry): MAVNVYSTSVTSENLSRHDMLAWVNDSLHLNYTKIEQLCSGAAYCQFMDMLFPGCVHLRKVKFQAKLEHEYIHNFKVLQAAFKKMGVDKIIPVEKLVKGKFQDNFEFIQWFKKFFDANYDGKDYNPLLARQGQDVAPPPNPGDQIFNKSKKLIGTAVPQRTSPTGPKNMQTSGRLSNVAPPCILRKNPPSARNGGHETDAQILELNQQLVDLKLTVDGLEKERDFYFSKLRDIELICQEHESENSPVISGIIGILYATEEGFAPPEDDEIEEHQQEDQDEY

Regarding `CC[C@H](C)[C@H](NC(=O)[C@@H](NC(=O)[C@@H]1CCCN1C(=O)[C@@H](NC(=O)[C@H](CCC(=O)O)NC(=O)[C@@H](NC(=O)[C@H](N)Cc1ccccc1)[C@@H](C)O)[C@@H](C)CC)[C@@H](C)O)C(=O)O` [compound 004, (S)-4-((2S,3R)-2-((R)-2-amino-3-phenylpropanamido)-3-hydroxybutanamido)-5-(((2S,3S)-1-((S)-2-(((2S,3R)-1-(((1S,2S)-1-carboxy-2-methylbutyl)amino)-3-hydroxy-1-oxobutan-2-yl)carbamoyl)pyrrolidin-1-yl)-3-methyl-1-oxopentan-2-yl)amino)-5-oxopentanoic acid] (H-[dF]TEIPTI-OH), in data set [1], the “Aggregation at 1mM” value is 0.35. This molecule had a logD in data set [2] of -0.81. For the same molecule, the inhibition at 0.25 µM in data set [3] amounted to 39%.
As to `CC[C@H](C)[C@@H]1NC(=O)[C@H]([C@@H](C)O)NC(=O)[C@@H]2CCCN2C(=O)[C@H]([C@@H](C)CC)NC(=O)[C@H](CCC(=O)O)NC(=O)[C@H]([C@@H](C)O)NC(=O)[C@H](Cc2ccccc2)NC1=O` [compound 012, 3-((3S,6S,9S,12S,15S,18S,23aS)-9-benzyl-6,18-di((S)-sec-butyl)-3,12-bis((R)-1-hydroxyethyl)-1,4,7,10,13,16,19-heptaoxodocosahydro-1H-pyrrolo[1,2-a][1,4,7,10,13,16,19]heptaazacyclohenicosin-15-yl)propanoic acid.] (cyclo(EIPTIFT)), the logD in data set [2] is -0.04. This molecule gave an inhibition at 0.25 µM in data set [3] of 49%.
The like results for `CC[C@H](C)[C@@H]1NC(=O)[C@H]([C@@H](C)O)NC(=O)[C@@H]2CCCN2C(=O)[C@H]([C@@H](C)CC)NC(=O)[C@H](CCC(=O)O)NC(=O)[C@H]([C@@H](C)O)NC(=O)[C@H](Cc2ccccc2)NC(=O)CNC(=O)CNC(=O)[C@H]([C@@H](C)O)NC(=O)CC[C@@H](C(=O)O)NC(=O)[C@@H]2CCCN2C(=O)[C@H](CC(C)C)NC1=O` [compound 013, (6S,9S,12S,15S,24S,29S,31aS,37S,40S,43S,45aS)-15-benzyl-6,40-di((S)-sec-butyl)-9-(2-carboxyethyl)-12,24,43-tris((R)-1-hydroxyethyl)-37-isobutyl-5,8,11,14,17,20,23,26,31,36,39,42,45-tridecaoxotetratetracontahydro-5H-dipyrrolo[2,1-c:2',1'-o][1,4,7,10,13,16,19,22,25,28,31,34,37]tridecaazacyclohentetracontine-29-carboxylic acid] (TGGFTEIPTILPE-OH; lactam N-13) were, in that order, -0.27 and 51%.
With `CC[C@H](C)[C@H](NC(=O)[C@@H](NC(=O)[C@@H]1CCCN1C(=O)[C@H](CC(C)(C)C)NC(=O)[C@@H](CCC(=O)O)NC(=O)[C@@H](NC(=O)[C@@H](N)Cc1ccccc1)C(C)(C)O)[C@@H](C)O)C(=O)O` [compound 016, (R)-4-((S)-2-((S)-2-amino-3-phenylpropanamido)-3-hydroxy-3-methylbutanamido)-5-(((S)-1-((S)-2-(((2S,3R)-1-(((1S,2S)-1-carboxy-2-methylbutyl)amino)-3-hydroxy-1-oxobutan-2-yl)carbamoyl)pyrrolidin-1-yl)-4,4-dimethyl-1-oxopentan-2-yl)amino)-5-oxopentanoic acid] (H-F[Val(3-OH)][dE][tBuAla]PTI-OH), the “Aggregation at 1mM” value in data set [1] came out at 0.18. In data set [2], this molecule gave a logD of -0.3. Further, in data set [3], at 0.25 µM the inhibition was 48%.
The like results for `C=C(C)C[C@H](NC(=O)[C@H](CCC(=O)O)NC(=O)[C@@H](NC(=O)[C@@H](N)Cc1ccccc1)[C@@H](C)O)C(=O)N1CCC[C@H]1C(=O)N[C@H](C(=O)N[C@H](C(=O)O)[C@@H](C)CC)[C@@H](C)O` [compound 019, (S)-4-((2S,3R)-2-((S)-2-amino-3-phenylpropanamido)-3-hydroxybutanamido)-5-(((S)-1-((S)-2-(((2S,3R)-1-(((1S,2S)-1-carboxy-2-methylbutyl)amino)-3-hydroxy-1-oxobutan-2-yl)carbamoyl)pyrrolidin-1-yl)-4-methyl-1-oxopent-4-en-2-yl)amino)-5-oxopentanoic acid] (H-FTE[Leu(4,5-dehydro)]PTI-OH) were, in that order, “weak signal”, -1 and 51%.
Regarding `CC[C@H](C)[C@H](NC(=O)[C@@H](NC(=O)[C@@H]1CCCN1C(=O)[C@@H](NC(=O)c1ccc(CNC(=O)[C@H](NC(=O)[C@@H](N)Cc2ccccc2)C(C)(C)O)cc1)[C@@H](C)CC)[C@@H](C)O)C(=O)O` [compound 021, (4-(((R)-2-((S)-2-amino-3-phenylpropanamido)-3-hydroxy-3-methylbutanamido)methyl)benzoyl)-L-isoleucyl-L-prolyl-L-threonyl-L-isoleucine] (H-F[dVal(3-OH)][4Amb]IPTI-OH), the “Aggregation at 1mM” value in data set [1] was “weak signal”. In data set [2], this molecule gave a logD of -0.24. This molecule also came in with an inhibition at 0.25 µM in data set [3] of 35%.
Consider `CC[C@@H](C)[C@H]1NC(=O)[C@H]([C@@H](C)O)NC(=O)C2CCCN2C(=O)[C@@H](CC(C)(C)C)NC(=O)[C@](C)(NC(=O)[C@@H](CCC(=O)O)NC(=O)[C@H](NC(=O)[C@H](N)Cc2ccccc2)[C@H](C)O)CCC/C=C\CCCC[C@@](C)(C(=O)N[C@@H](CCCNC(=N)N)C(=O)O)NC1=O` (stereo partly drawn) [compound 028, (4R)-4-((2R,3S)-2-((R)-2-amino-3-phenylpropanamido)-3-hydroxybutanamido)-5-(((3S,6R,9S,19R,22R,Z)-6-((R)-sec-butyl)-9-(((S)-1-carboxy-4-guanidinobutyl)carbamoyl)-3-((R)-1-hydroxyethyl)-9,19-dimethyl-22-neopentyl-1,4,7,20,23-pentaoxo-2,3,4,5,6,7,8,9,10,11,12,13,16,17,18,19,20,21,22,23,25,26,27,27a-tetracosahydro-1H-pyrrolo[1,2-d][1,4,7,10,13]pentaazacyclopentacosin-19-yl)amino)-5-oxopentanoic acid] (H-[dF][dT][dE][R5][d(tBuAla)][ξP]T[dI][X2]R-OH; staple (Z) 4-9), for which, in data set [1], the “Aggregation at 1mM” value amounted to 1.39. In data set [2], this molecule gave a logD of -1. In data set [3], this molecule yielded an inhibition at 0.25 µM of 45%.
For the molecule `C=C(C)C[C@H](NC(=O)[C@H](CCC(=O)O)NC(=O)[C@H](NC(=O)[C@H](N)Cc1ccccc1)C(C)(C)O)C(=O)N1CCC[C@H]1C(=O)N[C@H](C(=O)N[C@H](C(=O)O)[C@@H](C)CC)[C@@H](C)O` [compound 036, (S)-4-((R)-2-((R)-2-amino-3-phenylpropanamido)-3-hydroxy-3-methylbutanamido)-5-(((S)-1-((S)-2-(((2S,3R)-1-(((1S,2S)-1-carboxy-2-methylbutyl)amino)-3-hydroxy-1-oxobutan-2-yl)carbamoyl)pyrrolidin-1-yl)-4-methyl-1-oxopent-4-en-2-yl)amino)-5-oxopentanoic acid] (H-[dF][dVal(3-OH)]E[Leu(4,5-dehydro)]PTI-OH), in data set [1], the “Aggregation at 1mM” value is on record as “weak signal”. The molecule also showed a logD in data set [2] of -0.89. The same molecule came in with an inhibition at 0.25 µM in data set [3] of 40%.
The molecule `CC[C@H](C)[C@H](NC(=O)[C@H](NC(=O)[C@@H]1[C@@H]2CCCC[C@@H]2CN1C(=O)[C@H](CC(C)(C)C)NC(=O)[C@H](CCC(=O)O)NC(=O)[C@H](NC(=O)[C@@H](N)Cc1ccccc1)C(C)(C)O)C(C)(C)O)C(=O)O` [compound 040, (S)-4-((R)-2-((S)-2-amino-3-phenylpropanamido)-3-hydroxy-3-methylbutanamido)-5-(((S)-1-((1S,3aS,7aR)-1-(((R)-1-(((1S,2S)-1-carboxy-2-methylbutyl)amino)-3-hydroxy-3-methyl-1-oxobutan-2-yl)carbamoyl)octahydro-2H-isoindol-2-yl)-4,4-dimethyl-1-oxopentan-2-yl)amino)-5-oxopentanoic acid.] (H-F[dVal(3-OH)]E[tBuAla][X5][dVal(3-OH)]I-OH) had a logD in data set [2] of 0.67. In data set [3], the inhibition at 0.25 µM was determined as 50%.
In the case of `C=C(C)C[C@H](NC(=O)[C@@H](NC(=O)[C@@H]1CCCN1C(=O)[C@@H](CC(=C)C)NC(=O)[C@H](CCC(=O)O)NC(=O)[C@H](NC(=O)[C@H](N)Cc1ccccc1)C(C)(C)O)[C@@H](C)O)C(=O)O` [compound 049, (S)-2-((2S,3R)-2-((S)-1-((R)-2-((S)-2-((R)-2-((R)-2-amino-3-phenylpropanamido)-3-hydroxy-3-methylbutanamido)-4-carboxybutanamido)-4-methylpent-4-enoyl)pyrrolidine-2-carboxamido)-3-hydroxybutanamido)-4-methylpent-4-enoic acid.] (H-[dF][dVal(3-OH)]E[X4]PT[Leu(4,5-dehydro)]-OH), the logD in data set [2] is -0.71. In addition, the inhibition at 0.25 µM in data set [3] turned out to be 52%.
With `CCN1CCN(c2cc3c(cc2F)c(=O)c(C(=O)O)cn3C2CC2)CC1` [enrofloxacin, reference compound], the survival result in data set [4] is listed as “neither antibiotics nor VT-109 monotherapy (0.5 µmol/kg bw) significantly improved survival”.

The logD is the decadic logarithm of the distribution of all forms, ionised or not, between an organic phase and buffer at a given pH. A higher logD goes with a more lipophilic compound. A word on the inhibition: it is the percentage by which the read-out fell short of the control.
